Experimental data published in US9624229B2, “Pyrimidine-2-amine compounds and their use as inhibitors of JAK kinases” (Rigel Pharmaceuticals, Inc., priority 2008, dated 2017).

Biological target: Ba/F3 V617F cells (Homo sapiens, UniProt O60674, V617F, cells depend on it)
Assay: Proliferation assay (Cell Titer-Glo, 72 h) utilizing Ba/F3 V617F cells
Assay type: cell-based, mouse
Conditions: Ba/F3 V617F cells, proliferation, level of activity given as class symbol, read-out: IC50 (the source's name)
Summary of the method: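 Ba/F3 V617F cells in RPMI/10% FBS, 1×10^5 cells/mL, exposed in duplicate to 3-fold serial compound dilutions (top 5 mM DMSO stock, diluted 1:250, added as 2× solution in 5% FBS medium) for 72 h at 37 °C. Viability by Cell Titer-Glo luminescence; IC50 reported.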

Ba/F3 V617F cells, sequence (O60674 whole entry V617F): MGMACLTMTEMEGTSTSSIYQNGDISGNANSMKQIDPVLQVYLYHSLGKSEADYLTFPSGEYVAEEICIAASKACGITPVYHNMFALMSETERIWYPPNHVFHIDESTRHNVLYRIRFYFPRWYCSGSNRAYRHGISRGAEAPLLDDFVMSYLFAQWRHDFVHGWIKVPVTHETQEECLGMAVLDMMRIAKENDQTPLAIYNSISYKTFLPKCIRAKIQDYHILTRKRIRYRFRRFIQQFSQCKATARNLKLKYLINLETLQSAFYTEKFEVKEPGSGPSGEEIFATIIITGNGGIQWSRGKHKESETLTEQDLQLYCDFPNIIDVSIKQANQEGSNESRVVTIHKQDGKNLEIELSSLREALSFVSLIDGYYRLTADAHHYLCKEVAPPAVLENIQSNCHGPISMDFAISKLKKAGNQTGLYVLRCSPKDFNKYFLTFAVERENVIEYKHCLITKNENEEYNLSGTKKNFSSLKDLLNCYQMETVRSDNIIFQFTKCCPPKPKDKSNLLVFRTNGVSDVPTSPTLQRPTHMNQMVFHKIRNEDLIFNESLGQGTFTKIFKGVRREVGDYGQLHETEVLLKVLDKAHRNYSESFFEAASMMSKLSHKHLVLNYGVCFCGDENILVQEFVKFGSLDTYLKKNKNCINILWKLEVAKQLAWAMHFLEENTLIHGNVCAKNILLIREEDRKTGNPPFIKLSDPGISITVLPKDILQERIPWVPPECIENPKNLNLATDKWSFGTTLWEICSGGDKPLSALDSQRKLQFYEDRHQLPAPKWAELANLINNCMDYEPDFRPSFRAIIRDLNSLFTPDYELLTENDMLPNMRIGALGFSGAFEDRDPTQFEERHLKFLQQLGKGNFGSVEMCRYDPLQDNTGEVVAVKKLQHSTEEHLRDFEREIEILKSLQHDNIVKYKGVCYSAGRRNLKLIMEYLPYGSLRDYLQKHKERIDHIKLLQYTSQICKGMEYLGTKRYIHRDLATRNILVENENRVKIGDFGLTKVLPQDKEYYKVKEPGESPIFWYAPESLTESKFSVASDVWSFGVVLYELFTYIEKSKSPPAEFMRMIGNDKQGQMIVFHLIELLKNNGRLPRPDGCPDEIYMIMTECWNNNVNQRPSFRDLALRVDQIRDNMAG

| GI50 [nM] | Compound |
| --- | --- |
| < 1000 | Cc1cc(Nc2nccc(-c3ccc(N4CCOCC4)nc3)n2)ccc1N1C[C@@H]2C[C@H]1CN2S(C)(=O)=O [compound 192, 4-(6-(morpholin-4-yl)pyridin-3-yl)-N-(3-methyl-4-((1S,4S)-5-methylsulfonyl-2,5-diazabicyclo[2.2.1]heptan-2-yl)phenyl)pyrimidin-2-amine] |
| < 1000 | CN1C[C@@H]2C[C@H]1CN2c1ccc(Nc2nccc(-c3ccc4c(c3)SCC(=O)N4)n2)cc1C#N [compound 273, 4-(3-oxo-3,4-dihydro-2H-benzo[b][1,4]thiazin-7-yl)-N-(3-cyano-4-((1S,4S)-5-methyl-2,5-diazabicyclo[2.2.1]heptan-2-yl)phenyl)pyrimidin-2-amine] |
| < 1000 | Cc1cc(Nc2nccc(-c3cnc4c(c3)OC(C)(C)C(=O)N4)n2)ccc1N1C[C@@H]2C[C@H]1CN2C1CCCC1 [compound 250, 4-(2,2-dimethyl-3-oxo-3,4-dihydro-2H-pyrido[3,2-b][1,4]oxazin-7-yl)-N-(3-methyl-4-((1S,4S)-5-cyclopentyl-2,5-diazabicyclo[2.2.1]heptan-2-yl)phenyl)pyrimidin-2-amine] |
| < 1000 | Cc1cc(Nc2nccc(-c3ccc(N4CCOCC4)nc3)n2)ccc1N1CCN2C(C1)[C@H]1CC[C@@H]2C1 (stereo partly drawn) [compound 245, 4-(6-(morpholin-4-yl)pyridin-3-yl)-N-(3-methyl-4-((6R,9S)-6,9-methanooctahydro-1H-pyrido[1,2-a]pyrazin-2-yl)phenyl)pyrimidin-2-amine] |
| < 1000 | Cc1cc(Nc2nccc(-c3ccc4c(c3)CCCC(=O)N4)n2)ccc1N1CCN2C(C1)[C@H]1CC[C@@H]2C1 (stereo partly drawn) [compound 278, 4-(2-oxo-2,3,4,5-tetrahydro-1H-benzo[b]azepin-7-yl)-N-(3-methyl-4-((6R,9S)-6,9-methanooctahydro-1H-pyrido[1,2-a]pyrazin-2-yl)phenyl)pyrimidin-2-amine] |

Same assay, conditions: Ba/F3 V617F cells, proliferation, level of activity to inhibit JAK2, read-out: IC50 (the source's name)

| GI50 [nM] | Compound |
| --- | --- |
| < 1000 | Cc1cc(Nc2nccc(-c3ccc(N4CCOCC4)nc3)n2)ccc1N1CCN2CCC1CC2 [compound 159, 4-(6-(morpholin-4-yl)pyridin-3-yl)-N-(3-methyl-4-(1,4-diazabicyclo[3.2.2]nonan-4-yl)phenyl)pyrimidin-2-amine] |
| 1000 to 10000 | Cc1cc(Nc2nccc(-c3ccc(C#N)nc3)n2)ccc1N1C[C@@H]2C[C@H]1CN2C [compound 111, 4-(6-cyanopyridin-3-yl)-N-(3-methyl-4-((1S,4S)-5-methyl-2,5-diazabicyclo[2.2.1]heptan-2-yl)phenyl)pyrimidin-2-amine] |
| < 1000 | Cc1cc(Nc2nccc(-c3cnc4c(c3)CCC(=O)N4)n2)ccc1N1C[C@@H]2C[C@H]1CN2C [compound 51, 4-(7-oxo-5,6,7,8-tetrahydro-1,8-naphthyridin-3-yl)-N-(3-methyl-4-((1S,4S)-5-methyl-2,5-diazabicyclo[2.2.1]heptan-2-yl)phenyl)pyrimidin-2-amine] |
| 1000 to 10000 | Cc1cc(Nc2nccc(-c3csc(N(C)C)n3)n2)ccc1N1C[C@@H]2C[C@H]1CN2C [compound 175, 4-(2-(dimethylamino)thiazol-4-yl)-N-(3-methyl-4-((1S,4S)-5-methyl-2,5-diazabicyclo[2.2.1]heptan-2-yl)phenyl)pyrimidin-2-amine] |
| < 1000 | Cc1cc(Nc2nccc(-c3cnc4[nH]ccc4c3)n2)ccc1N1C[C@@H]2C[C@H]1CN2CC(F)(F)F [compound 34, 4-(1H-pyrrolo[2,3-b]pyridin-5-yl)-N-(3-methyl-4-((1S,4S)-5-(2,2,2-trifluoroethyl)-2,5-diazabicyclo[2.2.1]heptan-2-yl)phenyl)pyrimidin-2-amine] |
| < 1000 | Cc1cc(Nc2nccc(-c3ccc(N(C)C)cc3)n2)ccc1N1C[C@@H]2C[C@H]1CN2C [compound 14, 4-(4-(N,N-dimethylamino)phenyl)-N-(3-methyl-4-((1S,4S)-5-methyl-2,5-diazabicyclo[2.2.1]heptan-2-yl)phenyl)pyrimidin-2-amine] |

Same assay, conditions: inhibition of JAK2 activity, proliferation of Ba/F3 V617F cells, read-out: IC50 (the source's name)

| GI50 [nM] | Compound |
| --- | --- |
| 1000 to 10000 | Cc1cc(Nc2nccc(-c3ccc(N(C)C)cc3)n2)cnc1N1C[C@@H]2C[C@H]1CN2C [compound 62] |
